Key:
Type in all cases: in vivo
[1] = system: adult brown dog ticks (Rhipicephalus sanguineus); experiment: Rhipicephalus sanguineus in-vitro contact test, adult brown dog ticks; conditions: 48 h, read-out: efficacy (ticks dead or moribund)
Method in brief: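 Glass tubes are coated with compound dissolved in acetone, a 900 ppm solution yielding 5 μg/cm^2 on the inner surface. Adult ticks (5-10 per tube) are kept on the dry film at room temperature for 48 h, then those unable to escape 45-50° C heat are counted as dead or moribund.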

[2] = system: green peach aphid (Myzus persicae); experiment: Myzus persicae spray test (MYZUPE); conditions: 120 h, 100 g/ha, after 5 days
Method in brief: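 Percent aphid kill, with 0% meaning none killed, was read 5 days after spraying. The preparation (acetone–DMF solvent, water with 1000 ppm emulsifier) was applied to Brassica pekinensis leaf disks carrying mixed-instar green peach aphids.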

[3] = system: adult unfed cat fleas (Ctenocephalides felis); experiment: Ctenocephalides felis oral test; conditions: 48 h
Protocol: Ctenocephalides felis—Oral Test
Solvent: dimethyl sulfoxide
To produce a suitable preparation of active compound, 10 mg of active compound are dissolved in 0.5 mL solvent, and the concentrate is diluted with citrated cattle blood to the desired concentration.
Approximately 20 adult unfed cat fleas (Ctenocephalides felis) are placed in a flea chamber whose top and bottom is covered with gauze. A chamber whose bottom is sealed with parafilm, is filled with the blood-compound solution and placed on top of the flea chamber, so that the fleas can suck the blood. The blood chamber is heated to 37° C. whereas the flea chamber is kept at room temperature.
After 2 days mortality in % is determined. 100% means all the fleas have been killed; 0% means none of the fleas have been killed.

Compound `C[C@H](NC(=O)c1cc(Br)cc(OC(F)(F)F)c1)c1ncnn1-c1cc(C#N)ncn1` [I-1, 3-bromo-N-{(1S)-1-[1-(6-cyanopyrimidin-4-yl)-1H-1,2,4-triazol-5-yl]ethyl}-5-(trifluoromethoxy)benzamide] has a pest or weed control at 5 µg/cm2, 500 g/ha [1] of 100%, a mortality at 100 g/ha [2] of 90% and a mortality at 100 ppm [3] of 100%.
